From ChEMBL document CHEMBL1201862, “PubChem BioAssay data set” (2004)
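Growth conditions: 96-well plates. Treatment: test compound, 48 hours, 5 concentrations. Analysis: linear interpolation between bracketing concentrations; unreached endpoints set to highest concentration. Here, GI50 denotes the concentration required for 50% inhibition of growth.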 Calls of active or inactive are those of the source. Rule as the data show it: active = GI50 up to about 1.1 µM and inactive = higher.

Columns and labels:
Experiment in all cases: growth of human tumour cells (NCI), 48 h
[1] = tested on: MDA-MB-231
[2] = tested on: CAKI-1
[3] = tested on: SNB-19
[4] = tested on: LOX IMVI
[5] = tested on: HT-29
[6] = tested on: BT-549
[7] = tested on: M14
[8] = tested on: SNB-75
[9] = tested on: NCI-H460
[10] = tested on: NCI/ADR-RES
[11] = tested on: EKVX
[12] = tested on: UACC-257
[13] = tested on: SK-MEL-5
[14] = tested on: HOP-62
[15] = tested on: UACC-62
[16] = tested on: OVCAR-5
[17] = tested on: DU-145
[18] = tested on: COLO 205
[19] = tested on: HCT-15
[20] = tested on: HCC 2998

Compound | GI50 [1] | GI50 [2] | GI50 [3] | GI50 [4] | GI50 [5] | GI50 [6] | GI50 [7] | GI50 [8] | GI50 [9] | GI50 [10] | GI50 [11] | GI50 [12] | GI50 [13] | GI50 [14] | GI50 [15] | GI50 [16] | GI50 [17] | GI50 [18] | GI50 [19] [µM] | GI50 [20]
O=C1c2cccc([N+](=O)[O-])c2C(=O)N1c1ncn[nH]1 | 56.6 µM (inactive) | > 100 µM (inactive) | 29.7 µM (inactive) | > 100 µM (inactive) | > 100 µM (inactive) | 28.2 µM (inactive) | > 100 µM (inactive) | 23.6 µM (inactive) | > 100 µM (inactive) | > 100 µM (inactive) | 53 µM (inactive) | > 100 µM (inactive) | > 100 µM (inactive) | 38.9 µM (inactive) | > 100 µM (inactive) | > 100 µM (inactive) | > 100 µM (inactive) | > 100 µM (inactive) | > 100 | –
C=C[C@@]1(C)CC[C@@H]2[C@@]3(C1)O[C@H]3CC1[C@](C)(C(=O)OC)CCC[C@@]12C (some centres undefined) | 23 µM (inactive) | 33.5 µM (inactive) | 16.3 µM (inactive) | – | 14.1 µM (inactive) | 25.5 µM (inactive) | 19.6 µM (inactive) | 37.8 µM (inactive) | 16.4 µM (inactive) | 20 µM (inactive) | 20.7 µM (inactive) | 19.3 µM (inactive) | 17.8 µM (inactive) | 20 µM (inactive) | 27 µM (inactive) | 16.9 µM (inactive) | 30.4 µM (inactive) | 16.6 µM (inactive) | 19.5 | 17.3 µM (inactive)
CN(C)c1ccc([S+]([O-])Nc2ccccc2)cc1 (centres undefined) | 33.3 µM (inactive) | – | 60.1 µM (inactive) | 38.9 µM (inactive) | 76.4 µM (inactive) | 0.52 µM (active) | 38.5 µM (inactive) | – | 27.5 µM (inactive) | 22.1 µM (inactive) | 32.8 µM (inactive) | 27.3 µM (inactive) | 11.9 µM (inactive) | 56 µM (inactive) | 22.5 µM (inactive) | > 100 µM (inactive) | > 100 µM (inactive) | 24.6 µM (inactive) | 11.6 | 34.6 µM (inactive)
C1CSCCSS[C@@H]2CCCCC2SC1 (some centres undefined) | > 100 µM (inactive) | – | > 100 µM (inactive) | > 100 µM (inactive) | > 100 µM (inactive) | > 100 µM (inactive) | > 100 µM (inactive) | > 100 µM (inactive) | > 100 µM (inactive) | > 100 µM (inactive) | > 100 µM (inactive) | > 100 µM (inactive) | > 100 µM (inactive) | > 100 µM (inactive) | > 100 µM (inactive) | > 100 µM (inactive) | > 100 µM (inactive) | > 100 µM (inactive) | > 100 | > 100 µM (inactive)
COc1ccc(-c2c(C#N)c(N)nc(S)c2C#N)cc1 | 26.1 µM (inactive) | 42.4 µM (inactive) | 57.7 µM (inactive) | 43.5 µM (inactive) | 48.6 µM (inactive) | 24.9 µM (inactive) | 30 µM (inactive) | – | 31 µM (inactive) | 50 µM (inactive) | 36.1 µM (inactive) | 44.6 µM (inactive) | 26.2 µM (inactive) | 55.1 µM (inactive) | 41.5 µM (inactive) | > 100 µM (inactive) | 34.8 µM (inactive) | 30.1 µM (inactive) | 33.3 | 23.4 µM (inactive)
Cn1c(=O)c2c(nc3n2CCC(=O)N3CCCCl)n(C)c1=O | > 100 µM (inactive) | – | > 100 µM (inactive) | > 100 µM (inactive) | > 100 µM (inactive) | > 100 µM (inactive) | > 100 µM (inactive) | > 100 µM (inactive) | > 100 µM (inactive) | > 100 µM (inactive) | > 100 µM (inactive) | > 100 µM (inactive) | > 100 µM (inactive) | > 100 µM (inactive) | > 100 µM (inactive) | > 100 µM (inactive) | > 100 µM (inactive) | > 100 µM (inactive) | > 100 | > 100 µM (inactive)
C/C=C1/CC(C(=O)OC)N(C(=O)OCc2ccccc2)C1=S (centres undefined) | > 100 µM (inactive) | > 100 µM (inactive) | > 100 µM (inactive) | – | > 100 µM (inactive) | > 100 µM (inactive) | > 100 µM (inactive) | > 100 µM (inactive) | 12.3 µM (inactive) | > 100 µM (inactive) | 84.3 µM (inactive) | > 100 µM (inactive) | > 100 µM (inactive) | > 100 µM (inactive) | > 100 µM (inactive) | > 100 µM (inactive) | > 100 µM (inactive) | > 100 µM (inactive) | > 100 | 7.73 µM (inactive)
CCN(CC)CCNC(=O)c1cc2cc(NC(=O)c3cc4cc(N)ccc4[nH]3)ccc2[nH]1 | 25.4 µM (inactive) | 86.5 µM (inactive) | 49.3 µM (inactive) | – | 30.6 µM (inactive) | 28.1 µM (inactive) | 26.1 µM (inactive) | – | 34.6 µM (inactive) | > 100 µM (inactive) | 97.1 µM (inactive) | 51.1 µM (inactive) | – | 55 µM (inactive) | 23.4 µM (inactive) | > 100 µM (inactive) | 19.6 µM (inactive) | 12.9 µM (inactive) | > 100 | 17.1 µM (inactive)
Cc1nnc2ccccc2c1O | > 100 µM (inactive) | > 100 µM (inactive) | > 100 µM (inactive) | > 100 µM (inactive) | > 100 µM (inactive) | > 100 µM (inactive) | > 100 µM (inactive) | > 100 µM (inactive) | > 100 µM (inactive) | > 100 µM (inactive) | > 100 µM (inactive) | > 100 µM (inactive) | > 100 µM (inactive) | > 100 µM (inactive) | > 100 µM (inactive) | > 100 µM (inactive) | > 100 µM (inactive) | > 100 µM (inactive) | > 100 | –
CC(=O)NC(Cc1c[nH]c2ccccc12)C(=O)O (centres undefined) | > 100 µM (inactive) | > 100 µM (inactive) | > 100 µM (inactive) | > 100 µM (inactive) | > 100 µM (inactive) | > 100 µM (inactive) | > 100 µM (inactive) | – | > 100 µM (inactive) | > 100 µM (inactive) | > 100 µM (inactive) | 26.2 µM (inactive) | > 100 µM (inactive) | > 100 µM (inactive) | > 100 µM (inactive) | > 100 µM (inactive) | > 100 µM (inactive) | > 100 µM (inactive) | > 100 | –
CC(O)(C(=O)N(O)c1ccc(Cl)cc1)c1ccc(Cl)cc1 (centres undefined) | 22.8 µM (inactive) | 23.9 µM (inactive) | 48.2 µM (inactive) | 24.4 µM (inactive) | 31 µM (inactive) | 21.6 µM (inactive) | 34 µM (inactive) | – | 34.2 µM (inactive) | 25.6 µM (inactive) | 39.3 µM (inactive) | 24.8 µM (inactive) | 18.7 µM (inactive) | 26.7 µM (inactive) | 31.9 µM (inactive) | 37.9 µM (inactive) | 34.4 µM (inactive) | 18.1 µM (inactive) | 19.2 | 13 µM (inactive)
O=C(CN1CCOCC1)c1ccc2c(c1)oc(=O)n2CCN1CCCC1 | > 100 µM (inactive) | > 100 µM (inactive) | > 100 µM (inactive) | > 100 µM (inactive) | > 100 µM (inactive) | > 100 µM (inactive) | > 100 µM (inactive) | > 100 µM (inactive) | > 100 µM (inactive) | > 100 µM (inactive) | > 100 µM (inactive) | > 100 µM (inactive) | > 100 µM (inactive) | > 100 µM (inactive) | > 100 µM (inactive) | > 100 µM (inactive) | > 100 µM (inactive) | > 100 µM (inactive) | > 100 | –
CO[C@H]1C[C@](C)(O)Cc2cc3c(c(O)c21)C(=O)c1c(O)cc2c(c1C3=O)O[C@@H]1O[C@@]2(C)[C@H](O)[C@@H](N(C)C)[C@@H]1O | 1.82 µM (inactive) | 0.151 µM (active) | 0.434 µM (active) | – | 1.94 µM (inactive) | 2.05 µM (inactive) | 1.16 µM (inactive) | 0.653 µM (active) | 0.0295 µM (active) | 10 µM (inactive) | 3.55 µM (inactive) | 9.73 µM (inactive) | 1.16 µM (inactive) | 0.181 µM (active) | 0.738 µM (active) | 3.35 µM (inactive) | 0.536 µM (active) | 1.96 µM (inactive) | 1.23 | 2.15 µM (inactive)
CCOC(=O)N/N=C(\Cc1ccc([N+](=O)[O-])cc1)OCC | > 100 µM (inactive) | – | > 100 µM (inactive) | > 100 µM (inactive) | > 100 µM (inactive) | > 100 µM (inactive) | > 100 µM (inactive) | > 100 µM (inactive) | – | > 100 µM (inactive) | > 100 µM (inactive) | > 100 µM (inactive) | > 100 µM (inactive) | > 100 µM (inactive) | > 100 µM (inactive) | > 100 µM (inactive) | > 100 µM (inactive) | > 100 µM (inactive) | > 100 | > 100 µM (inactive)
C[Si](C)(C)c1ccc(-c2c3ccc(-c4cc(Br)cc(Br)c4)nc3nc3nc(-c4cc(Br)cc(Br)c4)ccc23)cc1 | > 100 µM (inactive) | > 100 µM (inactive) | > 100 µM (inactive) | – | – | > 100 µM (inactive) | > 100 µM (inactive) | > 100 µM (inactive) | > 100 µM (inactive) | > 100 µM (inactive) | > 100 µM (inactive) | > 100 µM (inactive) | > 100 µM (inactive) | > 100 µM (inactive) | > 100 µM (inactive) | > 100 µM (inactive) | > 100 µM (inactive) | > 100 µM (inactive) | > 100 | > 100 µM (inactive)
